Results: paper PMC5893557, “Small tumor necrosis factor receptor biologics inhibit the tumor necrosis factor-p38 signalling axis and inflammation” (Nature Communications, 2018)
pIC50: −log10 of the molar value. Where two headings read alike, the source gives them in different places. Residues, ends and D or L forms follow the SMILES beside them. No end group written: not given here.

Columns and labels:
human neutrophils = experiment: TNF70–80-induced lucigenin-dependent chemiluminescence (superoxide) in neutrophils; format: cell-based
Protocol: (§1) Neutrophil superoxide production was measured by an indirect assay involving the reduction of the lucigenin, (9, 9′-bis N-methyl-acridinium nitrate) (Sigma-Aldrich, Castle Hill, NSW, Australia) and measuring the light output by lucigenin-dependant chemiluminescence. […] After incubation, 500 μl of lucigenin (250 μM, final) was added and the final volume was adjusted to 1 ml. The cells were placed in luminometer (Autolumat Plus Model LB 953, Berthold Technologies, Bundoora, VIC, Australia) and the resulting chemiluminescence (in relative light units, RLU) measured. The results are expressed as maximal/peak rate of chemiluminescence produced unless specified otherwise. CR3 expression on neutrophils was measured by flow cytometry using anti-CD11b antibodies. […] After treatment, 2 μl of PE-labelled mouse IgG2a isotype control (Clone X39) or PE-labelled monoclonal anti-CD11b antibody (Clone D12) (both from BD Biosciences, North Ryde, NSW, Australia) was added to neutrophils in 200 μl of Isoton II (BD Biosciences) supplemented with 0.1% (w/v) BSA. After 30 min the cells were washed, fixed with formaldehyde (0.1%) and analysed on a FACScan (BD Biosciences, North Ryde, NSW, Australia). Cytokine (IL-1β and IL-8) mRNA productions were measured by quantitative RT-PCR. Briefly, total RNA was extracted from 1 × 10^6 neutrophils using the TRIzol reagent (Life Technologies Australia Pty, Mulgrave, VIC, Australia) according to the manufacturer’s instructions. RNA was converted to cDNA using iScript cDNA synthesis kit (Bio-rad, Hercules, CA, USA).

[1] = target: TNF-induced neutrophil CL production (Homo sapiens, UniProt P01375); conditions: read-out: IC50, inhibition of TNF-induced CL production; TNF (1 ng/ml) pre-treated with peptide for 30 min, human neutrophils, lucigenin chemiluminescence
Protocol: as §1

[2] = tested on: TNF-rich medium-induced superoxide production in neutrophils; experiment: TNF-rich medium (RM)-induced chemiluminescence in neutrophils; format: cell-based, human
macrophage = conditions: ability to stimulate nitric oxide production in macrophage; cited from earlier work
Description: The modification extended the serum half-life ...

[3] = tested on: p38 activity in HEK 293T cells; experiment: p38 activity in HEK 293T cells stably transfected with TRAF2, ∆TRAF2 or empty vector; format: cell-based; conditions: 10 μM
Protocol: (§2) The study was approved by the CYWHS Human Ethics Committee (project number HREC 595/12/10). Neutrophils were prepared from peripheral blood of healthy donors, who had given informed consent, by a rapid single-step technique. Blood was layered on to Hypaque-Ficoll (Pharmacia Biotech., Uppsala, Sweden), d = 1.114, and centrifuged at 600 × g for 20–30 min. After centrifugation, the leukocytes resolved into two bands and the neutrophils were harvested from the second band. The preparations of neutrophils were routinely of >99% viability and >98% purity. These were either used as cells in suspension or as adhered neutrophils by adding the cells to plasma-coated plates as previously described. The 70Z/3 pre-B cell line, kindly provided by Dr. W. Langdon, University of Western Australia, Perth, Australia, are mouse pre-B lymphocytes which lack binding sites for human TNF and are non-responsive to the cytokine[18],[19]. The cells were maintained in RPMI 1640 medium with 4.5 g/L glucose, 2 mM L-glutamine, […] 2-mercaptoethanol and 10% FCS in an atmosphere of 95% air and 5% CO2. […]
(§3) p38 activity was determined, after immunoprecipitation, as described using myelin basic protein (MPB) as a substrate for the kinase in the presence of ^32P-ATP[35]. […]

[4] = tested on: p38 activity in 70Z/3 pre-B cells; experiment: p38 activity in 70Z/3 pre-B cells, mock- or TNFRI (WT/mutant)-transfected; format: cell-based, mouse
Protocol: as §2, with “CO2. The monocytic cell line, MonoMac 6 was kindly provided by Dr. H.W.L. Ziegler-Heitbrock (Institute of Clinical Chemistry and Pathobiochemistry, Klinikum rechts der Isar, Technische Universitat, Munchen, Germany) and maintained in RPMI 1640 supplemented with 10% heat-inactivated foetal calf serum, 1 mM pyruvate, glutamine and antibiotics. A mouse fibroblastic fibrosarcoma cell line WEHI-164, clone 13 (from the ATCC) was obtained from Dr. Geeta Chauhdri (John Curtain School of Medical Research, Australian National University, Canberra, Australia). The cells were maintained in RPMI-1640 medium as above and the cells were detached with 0.25% trypsin EDTA. HEK 293T cells were maintained in DMEM, supplemented with 10% foetal calf serum.” for “CO2.”
as §3

[5] = Protocol: TNF70–80 and its control ([…]) were synthesised by Auspep Pty Ltd, (Tullamarine, VIC, Australia) and Genscript Biotech (Piscataway, NJ, USA). […] The sequence from the natural TNF-α was modified by substitution of isoleucine for leucine at residue 79. […] Fresh dilutions of the peptide were prepared daily in HBSS or HBSS with 1% BSA. The His-tagged M4 (HM4) ∆HM4 (LKPGTT) was purchased from Auspep Pty Ltd (Tullamarine, VIC, Australia). […] Peptides were stored at −20 °C and solutions were made in HBSS or RPMI prior to use.
p38 MAPK = experiment: p38 activation in neutrophils treated with TNF70–80; format: cell-based, human; conditions: neutrophils incubated 15 min with peptide
Protocol: as §2, §3

[6] = target: T1, recombinant human soluble TNFRI (Homo sapiens, UniProt P19438); experiment: Inhibition of biotin-labelled TNF70–80 binding to immobilised soluble TNFRI; conditions: tested at 1 mM in the presence of 10 μM biotinylated TNF70–80
T1 construct: rHusTNFRI (22–211), prepared as a chimeric protein; Fc portion of human IgG1; 6x histidine; purchased ProSpec-Tany TechnoGene Ltd (Rehovot, Israel)
T1 sequence (P19438 22-211): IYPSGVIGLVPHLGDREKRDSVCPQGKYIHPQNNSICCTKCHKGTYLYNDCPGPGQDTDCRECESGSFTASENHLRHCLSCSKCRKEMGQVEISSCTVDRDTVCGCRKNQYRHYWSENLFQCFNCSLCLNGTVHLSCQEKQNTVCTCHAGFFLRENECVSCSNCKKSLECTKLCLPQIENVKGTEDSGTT
Protocol: Microtitre plates were coated with 100 μl/well of 3 μg/ml rHusTNFRI (ProSpec-Tany TechnoGene Ltd, Rehovot, Isreal) in 18MQ-cm H2O overnight at 4 °C and blocked with 1% BSA and 0.05% Tween-20 in PBS for 1 h at 4 °C. Aliquot of 10 μM of biotin-labelled TNF70–80 (Auspep Pty, Ltd., Tullamarine, VIC, Australia) plus various concentrations of unlabelled TNF70–80 or control peptide were added to each well and incubated for 3 h at 4 °C. The wells were washed four times with wash buffer (PBS containing 0.05% Tween-20) and the plates were incubated with 100 μl/well of poly-horseradish peroxidase streptavidin conjugate (1/6000 dilution in 1% BSA and 0.05% Tween-20 in PBS) for 45 min at 4 °C. Wells were washed four times with wash buffer and bound enzyme detected by the addition of 3′,3′,5′,5′-tetramethylbenzidine (TMB) substrate (Sigma-Aldrich, Castle Hill, NSW, Australia). Absorbance was measured using dual filter at 570/450 nm on a Dynatech MR700 Plate Reader (Guernsey, Channel Islands).

[7] = tested on: CD11b expression in neutrophils; experiment: TNF-induced CD11b (CR3) expression in neutrophils, flow cytometry; format: cell-based, human; conditions: TNF (5 ng/ml) pre-treated 20 min with 200 μM peptide unless otherwise specified
Protocol: as §1, with “Briefly, total RNA was extracted from 1 × 10^6 neutrophils using the TRIzol reagent (Life Technologies Australia Pty, Mulgrave, VIC, Australia) according to the manufacturer’s instructions. RNA was converted to cDNA using iScript cDNA synthesis kit (Bio-rad, Hercules, CA, USA).” left out

TNF = experiment: Solid phase binding of TNF to coated TNFRI peptide; parameters: species or system human; conditions: peptide-coated plates, 50 U TNF, biotinylated anti-TNF antibody detection
Protocol: Depending on the experiment, microtitre plates were coated with 100 μl/well of either 3 μg/ml TNFRI198–211 in MilliQ water or TNFRI206–211 or the corresponding scrambled peptide in carbonate-bicarbonate buffer (pH 9.6) overnight at 4 °C and blocked with 1% BSA and 0.05% Tween-20 in PBS for 1 h at 4 °C. In the TNFRI198–211-coated plates, various concentrations of biotinylated TNF70–80 or control peptide were added to triplicate wells and incubated for 3 h at 4 °C. In the TNFRI206–211/scrambled peptide-coated plates, 50 U of TNF was added to triplicate wells, followed by washing with wash buffer (PBS/0.05% Tween-20) and then incubation with 50 μl of 1.5 μg/ml biotinylated monoclonal anti-TNF antibody (clone 2TNF-H33, ThermoScientific, Waltham, MA, USA). The wells from all plates were washed four times with wash buffer, then incubated with 100 μl/well of poly-horseradish peroxidase streptavidin conjugate (1/6000 dilution in 1% BSA and 0.05% Tween-20 in PBS) (ThermoScientific, Waltham, MA, USA) for 45 min at 4 °C. Wells were washed four times with wash buffer and bound enzyme detected by the addition of TMB substrate (Sigma-Aldrich, Castle Hill, NSW, Australia). Absorbance was measured using dual filter at 570/450 nm on a Dynatech MR700 Plate Reader (Guernsey, Channel Islands).

[8] = tested on: Ross River virus (RRV)-infected mice; conditions: cited from earlier work
Description: Given that the TNFR peptide sequence covers the minimal region that is required for TNF to activate p38, it is likely the peptide alters the dynamics of the TNF–TNFR interaction—allowing not only TNF binding to TNFRI, but also the activation of the other signalling molecules that the receptor normally activates. This implies that other regions of TNFRI mediate the activation of the other signalli ...

LKPGTT [∆HM4]
effect on TNF70–80-stimulated CL production in human neutrophils (human neutrophils; four experiments): dose-dependent suppression

QIENVKGTEDSGTT [TNFRI198–211]
pIC50 [1]: 4.30

C[C@@H](O)[C@H](NC(=O)[C@@H](NC(=O)CN)[C@@H](C)O)C(=O)O [TNFRI209–211] (H-Gly-Thr-Thr-OH)
pIC50 [2]: 3.84
pIC50 [1]: 3.91

EDSGTT [TNFRI206–211]
pIC50 ([2]; TNF-RM (conditioned medium of Staphylococcus aureus-stimulated mononuclear leukocytes, 1:10 in HBSS) treated with peptide, n = 3, read-out: IC50, inhibition of neutrophil response to TNF-rich medium): 3.67
pIC50 [1]: 3.77

C[S+]([O-])c1ccc(-c2nc(-c3ccncc3)c(-c3ccc(F)cc3)[nH]2)cc1 (stereo not drawn) [SB203580, reference compound]
effect on TNF70–80-induced respiratory burst response (human neutrophils; neutrophils pre-incubated with inhibitor for 10 min before TNF70–80): inhibited

PSTHVLITHTI [TNF70–80]
concentration that equates to 1000 U/ml of TNF (macrophage): 5.0 µg/mL
p38 activity in cells transfected with dominant-negative TRAF2 (∆TRAF2) [3]: but not in those transfected with ∆TRAF2
p38 activity in cells transfected with wild-type TRAF2 or an empty vector [3]: enhanced the activity of p38
superoxide production, lucigenin-dependent chemiluminescence (human neutrophils; neutrophils, chemiluminescence over 45 min): stimulated the production of superoxide in a similar manner to TNF
p38 activity effect in M4 TNFRI mutant-transfected cells ([4]; 70Z/3 cells, M4 TNFRI mutant, 10 μM, p = 0.11, n = 3): retained, albeit appearing reduced
increase in p38 activity ([4]; WT TNFRI- and M1 TNFR1-transfected 70Z/3 cells, 10 μM, 5 min, three experiments): ~ 2.5 fold
p38 activity in 70Z/3 pre-B cells lacking TNFRs ([4]; untransfected (mock) cells): failed to stimulate the activity of p38
serum half-life ([5]; after substitution of isoleucine for leucine at residue 79, no method or species printed): > 1.5 h
water solubility ([5]; after substitution of isoleucine for leucine at residue 79, relative to natural sequence): increased
p38 MAPK activation in neutrophils (p38 MAPK): activation of p38 MAPK

GGDPGIVTH [scrambled peptide (GGDPGIVTH), control peptide of TNF70–80 (…)]
binding to immobilised TNFR1 (competition with biotinylated TNF70–80) [6]: Lack of binding

GEDTST [scrambled control of TNFRI206–211]
effect on TNF-induced CD11b expression in neutrophils [7]: Lack of effect
binding to TNF, solid phase assay (TNF): did not bind

etanercept
outcome in RRV-infected mice versus untreated RRV-infected mice [8]: decreased weight gain, higher viral titre in muscle, joints and blood, associated with a greater degree of tissue damage and inflammatory cell recruitment
